Source: patent US10822337B2, “TGF-β inhibitorC” (Rigel Pharmaceuticals, Inc., priority 2015, dated 2020)

What was measured:
[1] = tested on: GDF8 signaling (GDF pSMAD, MPC11); assay: AlphaScreen SureFire SMAD3 (p-Ser423/425) assay, inhibition of GDF8 signaling; format: cell-based; details: Mus musculus, MPC-11, p-SMAD-3 (Ser423/425) in cell lysate after GDF8 stimulation
[2] = tested on: TGF-β signaling (TGF-β pSMAD, MPC-11); assay: AlphaScreen SureFire SMAD3 (p-Ser423/425) assay, inhibition of TGF-β signaling; format: cell-based; details: Mus musculus, p-SMAD-3 (Ser423/425) in cell lysate after TGF-β stimulation
Summary of the method: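 Cells in collagen-coated plates were pretreated about 10 minutes with three-fold DMSO serial dilutions of compound, then stimulated with TGF-β. They were lysed with about 25 μL 1× Lysis Buffer. Lysates in 384-well plates were incubated protected from light with Acceptor bead mix for 2 hours and Donor bead mix for 1½ hours. p-SMAD-3 (Ser423/425) was read on Synergy-4 or Enspire using AlphaScreen pSMAD3 settings.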

Structure (SMILES)	IC50 [1] [nM]	IC50 [2] [nM]
Clc1cccc(-c2nn3c(c2-c2ccc4[nH]ncc4c2)CCC3)c1 [Compound 22, 5-(2-(3-Chlorophenyl)-5,6-dihydro-4H-pyrrolo[1,2-b]pyrazol-3-yl)-1H-indazole]	92.5	183
FC(F)(F)c1cccc(-c2nn3c(c2-c2ccc4cn[nH]c4c2)OCC3)c1 [Compound 71, 7-(1H-Indazol-6-yl)-6-(3-trifluoromethylphenyl)-2,3-dihydropyrazolo[5,1-b]oxazole]	179	852
Cc1cc(-c2nn3c(c2-c2ccc4cn[nH]c4c2)CCC3)ccc1F [Compound 3, 6-(2-(4-Fluoro-3-methylphenyl)-5,6-dihydro-4H-pyrrolo[1,2-b]pyrazol-3-yl)-1H-indazole]	64.1	231
Cn1cnc2ccc(-c3c(-c4cccc(C(F)(F)F)c4)nn4c3CCC4)cc21 [Compound 33, 1-Methyl-6-(2-(3-trifluoromethylphenyl)-5,6-dihydro-4H-pyrrolo[1,2-b]pyrazol-3-yl)-1H-benzo[d]imidazole]	21.2	42.1
Cc1cccc(-c2nn3c(c2-c2ccc4nccnc4c2)OCC3)c1 [Compound 52, 7-(Quinoxalin-6-yl)-6-(m-tolyl)-2,3-dihydropyrazolo[5,1-b]oxazole]	47.7	203
Cc1cccc(-c2nn3c(c2-c2ccc4cn[nH]c4c2)OCC3)c1 [Compound 37, 7-(1H-indazol-6-yl)-6-(m-tolyl)-2,3-dihydropyrazolo[5,1-b]oxazole]	36.5	193
FC(F)(F)c1cccc(-c2nn3c(c2-c2ccc4nccn4c2)CCC3)c1 [Compound 34, 6-(2-(3-Trifluoromethylphenyl)-5,6-dihydro-4H-pyrrolo[1,2-b]pyrazol-3-yl)imidazo[1,2-a]pyridine]	8.3	34.8
Clc1ccccc1-c1nn2c(c1-c1ccc3ncsc3c1)CCC2 [Compound 120, 6-(2-(2-Chlorophenyl)-5,6-dihydro-4H-pyrrolo[1,2-b]pyrazol-3-yl)benzo[d]thiazole]	872	5560
Fc1ccc(-c2nn3c(c2-c2ccc4cn[nH]c4c2)OCC3)cc1 [Compound 65, 6-(4-Fluorophenyl)-7-(1H-indazol-6-yl)-2,3-dihydropyrazolo[5,1-b]oxazole]	143	881
Fc1ccc(-c2nn3c(c2-c2ccc4cn[nH]c4c2)CCC3)cc1 [Compound 6, 6-(2-(4-Fluorophenyl)-5,6-dihydro-4H-pyrrolo[1,2-b]pyrazol-3-yl)-1H-indazole]	200	1040
c1cc2c(cc1-c1nn3c(c1-c1ccc4[nH]ncc4c1)CCC3)OCO2 [Compound 90, 5-(2-(Benzo[d][1,3]dioxol-5-yl)-5,6-dihydro-4H-pyrrolo[1,2-b]pyrazol-3-yl)-1H-indazole]	776	4020
Fc1cc(F)c(-c2nn3c(c2-c2ccc4cn[nH]c4c2)CCC3)cc1F [Compound 113, 6-(2-(2,4,5-Trifluorophenyl)-5,6-dihydro-4H-pyrrolo[1,2-b]pyrazol-3-yl)-1H-indazole]	226	1470
Fc1cc(F)c(-c2nn3c(c2-c2ccc4cn[nH]c4c2)CCC3)cc1Cl [Compound 187, 6-(2-(5-Chloro-2,4-difluorophenyl)-5,6-dihydro-4H-pyrrolo[1,2-b]pyrazol-3-yl)-1H-indazole]	135	656
Cc1cccc(-c2nn3c(c2-c2ccc4nccn4c2)OCC3)c1 [Compound 44, 7-(imidazo[1,2-a]pyridin-6-yl)-6-(m-tolyl)-2,3-dihydropyrazolo[5,1-b]oxazole]	23.3	106
Clc1cccc(-c2nn3c(c2-c2ccc4nccnc4c2)CCC3)c1 [Compound 57, 6-(2-(3-Chlorophenyl)-5,6-dihydro-4H-pyrrolo[1,2-b]pyrazol-3-yl)quinoxaline]	72.4	398

Further lines, results first:

IC50 [1] [nM]	IC50 [2] [nM]	Structure (SMILES)
63	81.7	Fc1cc(F)c(-c2nn3c(c2-c2ccc4nccn4c2)CCC3)cc1Cl [Compound 188, 6-(2-(5-Chloro-2,4-difluorophenyl)-5,6-dihydro-4H-pyrrolo[1,2-b]pyrazol-3-yl)imidazo[1,2-a]pyridine]
59	608	Fc1ccc(F)c(-c2nn3c(c2-c2ccc4nccnc4c2)CCC3)c1 [Compound 197, 6-(2-(2,5-Difluorophenyl)-5,6-dihydro-4H-pyrrolo[1,2-b]pyrazol-3-yl)quinoxaline]
26.2	116	Fc1ccc(-c2nn3c(c2-c2ccc4ncsc4c2)CCC3)c(F)c1 [Compound 97, 6-(2-(2,4-Difluorophenyl)-5,6-dihydro-4H-pyrrolo[1,2-b]pyrazol-3-yl)benzo[d]thiazole]
131	335	Cc1c(F)ccc(-c2nn3c(c2-c2ccc4ncnn4c2)CCC3)c1F [Compound 173, 6-(2-(2,4-Difluoro-3-methyphenyl)-5,6-dihydro-4H-pyrrolo[1,2-b]pyrazol-3-yl)-[1,2,4]triazolo[1,5-a]pyridine]
428	1370	COc1cnc2ccc(-c3c(-c4cc(F)ccc4F)nn4c3CCC4)cc2n1 [Compound 199, 7-(2-(2,5-difluorophenyl)-5,6-dihydro-4H-pyrrolo[1,2-b]pyrazol-3-yl)-2-methoxyquinoxaline]
389	1160	Fc1ccc(-c2nn3c(c2-c2ccc4nccn4c2)CCC3)cc1OC(F)(F)F [Compound 151, 6-(2-(4-Fluoro-3-trifluoromethoxyphenyl)-5,6-dihydro-4H-pyrrolo[1,2-b]pyrazol-3-yl)imidazo[1,2-a]pyridine]
61.3	231	Fc1ccc(-c2nn3c(c2-c2ccc4ncnn4c2)CCC3)c(F)c1 [Compound 111, 6-(2-(2,4-Difluorophenyl)-5,6-dihydro-4H-pyrrolo[1,2-b]pyrazol-3-yl)-[1,2,4]triazolo[1,5-a]pyridine]
77.2	319	Cn1cnc2ccc(-c3c(-c4ccc(F)cc4F)nn4c3CCC4)cc21 [Compound 93, 6-(2-(2,4-Difluorophenyl)-5,6-dihydro-4H-pyrrolo[1,2-b]pyrazol-3-yl)-1-methyl-1H-benzo[d]imidazole]
69.5	140	Clc1cccc(-c2nn3c(c2-c2ccc4nccn4c2)CCC3)c1 [Compound 25, 6-(2-(3-Chlorophenyl)-5,6-dihydro-4H-pyrrolo[1,2-b]pyrazol-3-yl)imidazo[1,2-a]pyridine]
346	1640	Fc1ccc(-c2nn3c(c2-c2ccc4cn[nH]c4c2)CCC3)c(F)c1F [Compound 129, 6-(2-(2,3,4-Trifluorophenyl)-5,6-dihydro-4H-pyrrolo[1,2-b]pyrazol-3-yl)-1H-indazole]
51.5	152	Cc1cc(-c2nn3c(c2-c2ccc4nc[nH]c4c2)CCC3)ccc1F [Compound 9, 6-(2-(4-Fluoro-3-methylphenyl)-5,6-dihydro-4H-pyrrolo[1,2-b]pyrazol-3-yl)-1H-benzo[d]imidazole]
26.6	83	Cc1cccc(-c2nn3c(c2-c2ccc4ncnn4c2)CCC3)c1 [Compound 104, 6-(2-(m-Tolyl)-5,6-dihydro-4H-pyrrolo[1,2-b]pyrazol-3-yl)-[1,2,4]triazolo[1,5-a]pyridine]
359	874	Fc1c(Cl)cccc1-c1nn2c(c1-c1ccc3nccn3c1)CCC2 [Compound 139, 6-(2-(3-Chloro-2-fluorophenyl)-5,6-dihydro-4H-pyrrolo[1,2-b]pyrazol-3-yl)imidazo[1,2-a]pyridine]
463	1640	Cc1cc(-c2nn3c(c2-c2ccc4ncccc4c2)CCC3)c(F)cc1F [Compound 183, 6-(2-(2,4-Difluoro-5-methylphenyl)-5,6-dihydro-4H-pyrrolo[1,2-b]pyrazol-3-yl)quinoline]
335	2520	Cc1cc(-c2nn3c(c2-c2ccc4ncccc4c2)CCC3)ccc1F [Compound 47, 6-(2-(4-Fluoro-3-methylphenyl)-5,6-dihydro-4H-pyrrolo[1,2-b]pyrazol-3-yl)quinoline]
100	343	Fc1ccc(-c2nn3c(c2-c2ccc4nccn4c2)CCC3)cc1Cl [Compound 144, 6-(2-(3-Chloro-4-fluorophenyl)-5,6-dihydro-4H-pyrrolo[1,2-b]pyrazol-3-yl)imidazo[1,2-a]pyridine]
430	1340	COc1c(F)ccc(-c2nn3c(c2-c2ccc4ncnn4c2)CCC3)c1F [Compound 163, 6-(2-(2,4-Difluoro-3-methoxyphenyl)-5,6-dihydro-4H-pyrrolo[1,2-b]pyrazol-3-yl)-[1,2,4]triazolo[1,5-a]pyridine]
371	2590	Fc1ccc(F)c(-c2nn3c(c2-c2ccc4cn[nH]c4c2)CCC3)c1 [Compound 193, 6-(2-(2,5-Difluorophenyl)-5,6-dihydro-4H-pyrrolo[1,2-b]pyrazol-3-yl)-1H-indazole]
78.7	376	Fc1ccc(F)c(-c2nn3c(c2-c2ccc4ncsc4c2)CCC3)c1 [Compound 195, 6-(2-(2,5-Difluorophenyl)-5,6-dihydro-4H-pyrrolo[1,2-b]pyrazol-3-yl)benzo[d]thiazole]
28.3	41.9	Fc1ccc(Cl)cc1-c1nn2c(c1-c1ccc3ncsc3c1)CCC2 [Compound 175, 6-(2-(5-Chloro-2-fluorophenyl)-5,6-dihydro-4H-pyrrolo[1,2-b]pyrazol-3-yl)benzo[d]thiazole]
414	797	Cc1c(F)ccc(-c2nn3c(c2-c2ccc4cn[nH]c4c2)CCC3)c1F [Compound 168, 6-(2-(2,4-Difluoro-3-methylphenyl)-5,6-dihydro-4H-pyrrolo[1,2-b]pyrazol-3-yl)-1H-indazole]
